# From patent US4927837A, “Derivatives of 3-piperidine carbaldehyde oxime and their use as medicaments” (Roussel Uclaf, priority 1987, dated 1990)
# Like-named read-outs stand apart in the source and are kept apart here.
# Assays:
# [1] = Variation in body temperature (duration of action); assay type: in vivo, mice
# Protocol: (§1) The test is carried out on male mice (CD1 Charles Rivers) weighing 25 to 30 g, which have gone without food for 6 hours.
# The body temperature is noted using a thermocouple placed about 1.5 cm inside the rectum, and connected to an electric temperature recorder. […]
# The duration of action of the products is determined using doses capable of reducing the temperature by 1° to 1.5° C.
# [2] = system: central cholinergic system; conditions: cited from earlier work
# [3] = system: isolated ileum of guinea pigs; assay: Test on the isolated ileum of guinea pigs (agonistic activity); conditions: Cavia porcellus; isolated guinea pig ileum, contraction, Tyrode's solution, 37° C.; read-out: pD2 (negative logarithm of the dose which produces 50% of the maximum effect) (converted)
# Protocol: Fragments of the ileum of guinea pigs killed by decapitation are removed. The isolated ileum is placed in 10 cm^3 of Tyrode's solution at 37° C. and aerated by a mixture of oxygen (95%) and carbon dioxide gas (5%). The contractions due to the products are recorded with a detector linked to a polygraph. The products under test are added at concentrations between 1.10^-4 M and 1.10^-8 M/1.
# The products showing a contracting effect are tested vis a vis atropine and hexamethonium in order to establish whether the activity is of "muscarine" or "nicotine" type.
# The possible antagonistic activity of the products is tested vis a vis acetylcholine.
# The agonistic activity is expressed in pD2 (negative logarithm of the dose which produces 50% of the maximum effect.)
# [4] = Diarrheic activity in mice, oral route; conditions: mouse, in vivo, male mice, read-out: DE50 (dose which causes diarrhea in 50% of the animals)
# Protocol: The test is carried out on male mice (CD1 Charles Rivers) weighing 25 to 30 g, which have gone without food for 6 hours. The product, dissolved at 5% in methocel, is administered by oral route, using a probang.
# The control animals receive only the excipient.
# After treatment, the animals are put separately into cages, the bottoms of which are covered with blotting paper, and are put under observation for 30, 60, 120 and 180 minutes.
# The absorbent sheets of paper are changed after each observation.
# The consistency of the faeces is evaluated according to the Randall and Baruth method (Arch. Int. Pharmacodyn. 220, 94, 1976), according to the scale of the following values:
# 1: slightly moist faeces with or without halo of humidity,
# 2: slightly moist faeces with presence of well-defined circle of humidity,
# 3: moist faeces with presence of a large circle of humidity,
# 4: faeces without consistency with presence of a very large circle of humidity.
# For each product, the dose which causes diarrhea in 50% of the animals is noted according to the method of Miller and Tainter (Proc. Soc. Exp. Biol. Med., 57, 261, 1944).
# [5] = system: patients who have a memory deficiency; conditions: intravenous route; cited from earlier work
# [6] = Hypothermic activity in mice; assay type: in vivo; conditions: Mus musculus, male mice, read-out: Effective dose (-1° C.)
# Protocol: as §1
# The body temperature is noted using a thermocouple placed about 1.5 cm inside the rectum, and connected to an electric temperature recorder.
# The products are administered by oral or subcutaneous route and the temperatures are noted at instant 0 and at 30 minutes, 1 hour, 2 hours and 21/2 hours after treatment.
# The degree of hypothermia is evaluated as the difference between the treated animals and the control animals, and the dose necessary for reducing the body temperature by 1° C. is determined.
# in vivo = conditions: mouse, male mice, oral route, mortality noted for 7 days
# Protocol: The test is carried out on male mice (CD1 Charles Rivers) of 22 to 24 g, which have gone without food for 16 hours.
# [7] = 2 mg/kg, sc, 30 min, **p < 0.01
# [8] = 2 mg/kg, sc, 60 min, **p < 0.01
structure (smiles),measurement,setting,value
"COC(=O)C1=CCCN(C)C1 [Arecoline, HBr, reference compound]",Variation in body temperature,"[1]; 3.5 mg/kg, sc, 0 min",-0.1 °C
same,Variation in body temperature,"[1]; 3.5 mg/kg, sc, 30 min, **p < 0.01",-1.5 °C
same,Variation in body temperature,"[1]; 3.5 mg/kg, sc, 60 min",-0.1 °C
same,Variation in body temperature,"[1]; 3.5 mg/kg, sc, 120 min",+0.2 °C
same,Variation in body temperature,"[1]; 3.5 mg/kg, sc, 180 min",+0.2 °C
"COC(=O)C1=CCCN(C)C1 [Arecoline, reference compound]",period of action,[2]; in vivo,short-lasting period of action
same,activity by oral route,[2]; oral route,very weak activity by oral route
same,EC50,[3],0.126 µM
same,ED50,[4],35 mg/kg
same,effect on patients who have a memory deficiency,[5],positive effect
same,ED (-1 C),[6]; O. R. (oral route),194 mg/kg
same,ED (-1 C),[6]; SC. R. (subcutaneous route),3 mg/kg
"CON=CC1CCCNC1 (stereo not drawn) [Example 2, 3-piperidine carbaldehyde O-methyloxime]",LD50 at 168 h,in vivo,125 mg/kg
same,EC50,[3],0.891 µM
same,ED50,[4],3 mg/kg
same,Variation in body temperature,"[1]; 2 mg/kg, os, 0 min",+0.1 °C
same,Variation in body temperature,"[1]; 2 mg/kg, os, 30 min, **p < 0.01",-1.7 °C
same,Variation in body temperature,"[1]; 2 mg/kg, os, 60 min, **p < 0.01",-1.4 °C
same,Variation in body temperature,"[1]; 2 mg/kg, os, 120 min",+0.1 °C
same,Variation in body temperature,"[1]; 2 mg/kg, os, 180 min",+0.1 °C
same,Variation in body temperature,[1]; [7],-1.7 °C
same,Variation in body temperature,[1]; [8],-1.5 °C
same,Variation in body temperature,"[1]; 2 mg/kg, sc, 180 min",+0.1 °C
same,ED (-1 C),[6]; O. R. (oral route),1.2 mg/kg
same,ED (-1 C),[6]; SC. R. (subcutaneous route),1.2 mg/kg
"C#CCON=CC1CCCNC1 (stereo not drawn) [Example 6, 3-piperidine carbaldehyde O-(2-propynyl) oxime]",LD50 at 168 h,in vivo,100 mg/kg
same,EC50,[3],4.47 µM
same,ED50,[4],12 mg/kg
same,Variation in body temperature,"[1]; 12.5 mg/kg, os, 0 min",+0.1 °C
same,Variation in body temperature,"[1]; 12.5 mg/kg, os, 30 min, **p < 0.01",-1.2 °C
same,Variation in body temperature,"[1]; 12.5 mg/kg, os, 60 min, **p < 0.01",-1.4 °C
same,Variation in body temperature,"[1]; 12.5 mg/kg, os, 120 min",-0.1 °C
same,Variation in body temperature,"[1]; 12.5 mg/kg, os, 180 min",+0.1 °C
same,Variation in body temperature,"[1]; 12.5 mg/kg, sc, 0 min",-0.1 °C
same,Variation in body temperature,"[1]; 12.5 mg/kg, sc, 30 min, **p < 0.01",-1.6 °C
same,Variation in body temperature,"[1]; 12.5 mg/kg, sc, 60 min, **p < 0.01",-1.5 °C
same,Variation in body temperature,"[1]; 12.5 mg/kg, sc, 120 min",-0.2 °C
same,Variation in body temperature,"[1]; 12.5 mg/kg, sc, 180 min",+0.1 °C
same,ED (-1 C),[6]; O. R. (oral route),7 mg/kg
same,ED (-1 C),[6]; SC. R. (subcutaneous route),7 mg/kg
"CON=CC1CCCN(OC(=O)c2ccccc2)C1 (stereo not drawn) [Example 7, 1-benzoyloxy-3-piperidine carbaldehyde (O-methyloxime)]",LD50 at 168 h,in vivo,> 500 mg/kg
same,EC50,[3],> 100 µM
same,ED50,[4],10 mg/kg
same,Variation in body temperature,"[1]; 5 mg/kg, os, 0 min",+0.1 °C
same,Variation in body temperature,"[1]; 5 mg/kg, os, 30 min, **p < 0.01",-1.2 °C
same,Variation in body temperature,"[1]; 5 mg/kg, os, 60 min, **p < 0.01",-1.0 °C
same,Variation in body temperature,"[1]; 5 mg/kg, os, 120 min",+0.1 °C
same,Variation in body temperature,"[1]; 5 mg/kg, os, 180 min",+0.1 °C
same,Variation in body temperature,"[1]; 5 mg/kg, sc, 0 min",+0.1 °C
same,Variation in body temperature,"[1]; 5 mg/kg, sc, 30 min, **p < 0.01",-1.2 °C
same,Variation in body temperature,"[1]; 5 mg/kg, sc, 60 min, **p < 0.01",-1.1 °C
same,Variation in body temperature,"[1]; 5 mg/kg, sc, 180 min",+0.1 °C
same,ED (-1 C),[6]; O. R. (oral route),4 mg/kg
same,ED (-1 C),[6]; SC. R. (subcutaneous route),4 mg/kg
"CON=CC1CCCN(O)C1 (stereo not drawn) [Example 8, 1-hydroxy-3-piperidine carbaldehyde (O-methyloxime)]",LD50 at 168 h,in vivo,200 mg/kg
same,EC50,[3],11.2 µM
same,ED50,[4],4 mg/kg
same,Variation in body temperature,"[1]; 2 mg/kg, sc, 0 min",+0.1 °C
same,Variation in body temperature,[1]; [7],-1.2 °C
same,Variation in body temperature,[1]; [8],-1.0 °C
same,Variation in body temperature,"[1]; 2.5 mg/kg, os, 0 min",+0.1 °C
same,Variation in body temperature,"[1]; 2.5 mg/kg, os, 30 min, **p < 0.01",-1.2 °C
same,Variation in body temperature,"[1]; 2.5 mg/kg, os, 60 min, **p < 0.01",-1.0 °C
same,Variation in body temperature,"[1]; 2.5 mg/kg, os, 180 min",+0.2 °C
same,ED (-1 C),[6]; O. R. (oral route),2 mg/kg
same,ED (-1 C),[6]; SC. R. (subcutaneous route),1.6 mg/kg
